Reference: patent US6673790B1, “Indolin-2-one derivatives, preparation and their use as ocytocin receptor ligands” (Sanofi-Synthelabo, priority 2002, dated 2004)

Assays:
[1] = molecular target: human vasopressin V2 receptors (Homo sapiens, UniProt P30518); test: affinity for vasopressin V2 receptors (method of Birnbaumer et al.); type: binding; details: read-out: IC50 with respect to the V2 receptors
Excerpt: (§1) The affinity of the compounds according to the invention for human vasopressin V1a receptors (method described by M. Thibonnier et al. in J. Biol. Chem., 1994, 269, 3304-3310), V1b receptors (method described by T. Sugimoto et al. in J. Biol. Chem., 1994, 269, 27088-27092) and V2 receptors (method described by M. Birnbaumer et al. in Nature (Lond.), 1992, 357, 333-335) has also been studied. The compounds studied have little or no affinity for the V1a, V1b and V2 receptors.

[2] = molecular target: T1, human uterine oxytocin receptors (Homo sapiens, UniProt P30559); test: in vitro binding test: displacement of a radioiodinated oxytocin analogue in a membrane preparation
T1 construct: host or cells: membrane preparation
T1 sequence (P30559 1-389): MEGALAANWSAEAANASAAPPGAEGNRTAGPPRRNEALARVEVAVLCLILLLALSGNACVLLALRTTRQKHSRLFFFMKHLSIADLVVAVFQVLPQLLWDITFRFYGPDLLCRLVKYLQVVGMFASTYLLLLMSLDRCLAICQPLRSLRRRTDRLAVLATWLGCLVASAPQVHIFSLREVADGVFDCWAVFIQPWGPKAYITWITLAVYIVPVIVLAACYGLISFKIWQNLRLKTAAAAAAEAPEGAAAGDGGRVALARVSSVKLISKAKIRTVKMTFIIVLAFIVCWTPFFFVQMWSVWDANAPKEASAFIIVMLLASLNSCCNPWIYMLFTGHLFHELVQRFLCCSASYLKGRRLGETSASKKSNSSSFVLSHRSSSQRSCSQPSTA
Protocol: The compounds according to the invention have formed the subject of biochemical and pharmacological studies. The affinity of the compounds according to the invention for oxytocin receptors was determined in an in vitro binding test using the method described by J. Elands et al. in Eur. Pharmacol., 1987, 147, 192-207. This method consists in studying in vitro the displacement of a radioiodinated oxytocin analogue at the oxytocin receptors in a membrane preparation of human uterine oxytocin receptors. The IC50 values (concentration which inhibits 50% of the binding of the radioiodinated oxytocin analogue to its receptors) are low and vary from 10^−10 to 10^−6 M in the latter test.

[3] = molecular target: human vasopressin V1a receptors (Homo sapiens, UniProt P37288); test: affinity for vasopressin V1a receptors (method of Thibonnier et al.); type: binding; details: read-out: IC50 with respect to the V1a receptors
Chain of human vasopressin V1a receptors (P37288 whole entry): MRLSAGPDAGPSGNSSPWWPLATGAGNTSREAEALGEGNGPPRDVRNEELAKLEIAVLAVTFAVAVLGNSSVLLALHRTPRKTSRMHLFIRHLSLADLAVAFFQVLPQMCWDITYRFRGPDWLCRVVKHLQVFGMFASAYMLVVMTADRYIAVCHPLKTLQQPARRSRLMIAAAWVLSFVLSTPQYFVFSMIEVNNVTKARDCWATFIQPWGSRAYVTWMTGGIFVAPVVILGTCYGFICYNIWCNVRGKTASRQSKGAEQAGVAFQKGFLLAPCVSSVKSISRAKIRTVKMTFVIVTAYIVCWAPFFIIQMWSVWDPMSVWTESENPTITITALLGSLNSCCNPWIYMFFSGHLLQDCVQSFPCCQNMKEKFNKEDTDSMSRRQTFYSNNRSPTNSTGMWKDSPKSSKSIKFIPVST
Excerpt: as §1

[4] = molecular target: T2, human vasopressin V1b receptors (Homo sapiens, UniProt P47901); test: affinity for vasopressin V1b receptors (method of Sugimoto et al.); type: binding; details: read-out: IC50 with respect to the V1b receptors
T2 sequence (P47901 1-424): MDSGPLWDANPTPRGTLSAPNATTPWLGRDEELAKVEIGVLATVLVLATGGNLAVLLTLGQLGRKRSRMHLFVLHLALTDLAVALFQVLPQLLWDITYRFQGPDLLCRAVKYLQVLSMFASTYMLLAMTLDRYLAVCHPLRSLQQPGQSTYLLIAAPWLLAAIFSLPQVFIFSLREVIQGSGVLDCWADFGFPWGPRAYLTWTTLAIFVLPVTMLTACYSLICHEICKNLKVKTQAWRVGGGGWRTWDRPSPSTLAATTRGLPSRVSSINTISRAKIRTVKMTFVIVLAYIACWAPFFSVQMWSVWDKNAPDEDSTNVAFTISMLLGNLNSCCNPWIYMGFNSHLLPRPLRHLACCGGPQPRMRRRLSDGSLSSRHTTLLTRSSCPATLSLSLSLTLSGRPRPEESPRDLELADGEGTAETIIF
Excerpt: as §1

[5] = molecular target: T3, cells expressing human oxytocin receptors (Homo sapiens, UniProt P30559); test: measurement of intracellular calcium, agonist or antagonist nature; type: cell-based
T3 sequence (P30559 1-389): T1 sequence (P30559 1-389)
Protocol: The agonist or antagonist nature of the compounds is determined in vitro in a test for the measurement of intracellular calcium with respect to cells expressing human oxytocin receptors according to the general technique described in Am. J. Physiol., 268 (Heart Circ. Physiol., 37), 1995, H404-H410.

Chain of human vasopressin V2 receptors (P30518 whole entry): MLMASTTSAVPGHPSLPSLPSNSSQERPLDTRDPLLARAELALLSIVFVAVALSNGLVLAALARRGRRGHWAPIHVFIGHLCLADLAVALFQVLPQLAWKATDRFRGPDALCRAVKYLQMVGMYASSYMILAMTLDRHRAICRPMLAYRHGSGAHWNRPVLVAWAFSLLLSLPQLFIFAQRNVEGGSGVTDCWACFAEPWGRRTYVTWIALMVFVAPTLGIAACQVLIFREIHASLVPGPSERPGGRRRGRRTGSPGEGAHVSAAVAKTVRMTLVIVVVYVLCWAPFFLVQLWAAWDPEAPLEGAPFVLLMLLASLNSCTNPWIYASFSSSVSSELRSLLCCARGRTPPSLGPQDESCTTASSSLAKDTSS

| melting point [°C] | Compound | other results |
| --- | --- | --- |
| 98 | COCC1CCCN1C(=O)c1ccc(Cl)c(C2(C)C(=O)N(Cc3ccc(OC)cc3OC)c3ccc(Cl)cc32)c1 (stereo not shown) | – |
| 166 | CCN(C)C(=O)c1ccc(Cl)c(C2(C)C(=O)N(Cc3ccc(OC)cc3OC)c3ccc(Cl)cc32)c1 (stereo not shown) | – |
| 116 | COC(=O)C1CCCCN1C(=O)c1ccc(Cl)c(C2(C)C(=O)N(Cc3ccc(OC)cc3OC)c3ccc(Cl)cc32)c1 (stereo not shown) | – |
| 114 | COCCOCc1ccc(Cl)c(C2(C)C(=O)N(Cc3ccc(OC)cc3OC)c3ccc(Cl)cc32)c1 (stereo not shown) | – |
| 145 | COc1ccc(CN2C(=O)C(C)(c3cc(CN4CCOCC4)ccc3Cl)c3cc(Cl)ccc32)c(OC)c1 (stereo not shown) | – |
| 86.3 | CCN(CCOC)C(=O)c1ccc(Cl)c(C2(C)C(=O)N(Cc3ccc(OC)cc3OC)c3ccc(Cl)cc32)c1 (stereo not shown) | – |
| 111.7 | CCN(CCc1ccccc1)C(=O)c1ccc(Cl)c(C2(C)C(=O)N(Cc3ccc(OC)cc3OC)c3ccc(Cl)cc32)c1 (stereo not shown) | – |
| 102.8 | CCN(C(=O)c1ccc(Cl)c(C2(C)C(=O)N(Cc3ccc(OC)cc3OC)c3ccc(Cl)cc32)c1)C(C)C (stereo not shown) | – |
| 129.8 | COc1ccc(CN2C(=O)C(C)(c3cc(C(=O)NC4CCCCC4)ccc3Cl)c3cc(Cl)ccc32)c(OC)c1 (stereo not shown) | – |
| 191 | COCC(=O)Nc1ccc(Cl)c(C2(C)C(=O)N(Cc3ccc(OC)cc3OC)c3ccc(Cl)cc32)c1 (stereo not shown) | – |
| 184 | COc1ccc(CN2C(=O)C(C)(c3cc(C(=O)N(C)C)ccc3Cl)c3cc(Cl)ccc32)c(OC)c1 (stereo not shown) (hydrate or solvate) | – |
| 248 | CCNC(=O)c1ccc(Cl)c(C2(C)C(=O)N(Cc3ccc(OC)cc3OC)c3ccc(Cl)cc32)c1 (stereo not shown) (hydrate or solvate) | – |
| 73 | COc1ccc(CN2C(=O)C(C)(c3cc(N(C)S(=O)(=O)c4ccccc4)ccc3Cl)c3cc(Cl)ccc32)c(OC)c1 (stereo not shown) (hydrate or solvate) | – |
| – | COc1ccc(CN2C(=O)C(C)(c3ccccc3Cl)c3cc(Cl)ccc32)c(OC)c1 (racemic) [Example 1, 5-Chloro-3-(2-chlorophenyl)-1-(2,4-dimethoxybenzyl)-3-methylindolin-2-one] | IC50 [1]: > 1000 nM; IC50 [2]: < 50 nM; IC50 [3]: > 1000 nM; IC50 [4]: > 1000 nM |
| – | COc1ccc(CN2C(=O)C(C)(c3ccccc3Cl)c3cc(Cl)ccc32)c(OC)c1 (single isomer, unassigned) [dextrorotatory enantiomer of Example 1, 5-Chloro-3-(2-chlorophenyl)-1-(2,4-dimethoxybenzyl)-3-methylindolin-2-one] | agonist or antagonist nature [5]: antagonist; IC50 ([5]; read-out: IC50 as antagonist): 3.2 ± 1.9 nM |
